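Results reflect a 48-hour exposure of cells in 96-well plates to compound at five concentrations. GI50 is the concentration that inhibits growth by half. TGI: total growth inhibition.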
Legend:
Test in all cases: NCI-60 cell line screen, 48 h
[1] = test system: 786-0 renal
[2] = test system: A498 renal
[3] = test system: A549 NSCLC
[4] = test system: ACHN renal
[5] = test system: BT-549 breast
[6] = test system: CAKI-1 renal
[7] = test system: CCRF-CEM leukemia
[8] = test system: COLO 205 colon
[9] = test system: DU-145 prostate
[10] = test system: EKVX NSCLC
[11] = test system: HCC-2998 colon
[12] = test system: HCT-116 colon
[13] = test system: HCT-15 colon
[14] = test system: HL-60(TB) leukemia
[15] = test system: HOP-62 NSCLC
[16] = test system: HOP-92 NSCLC
[17] = test system: HS 578T breast
[18] = test system: HT29 colon
[19] = test system: IGROV1 ovarian
[20] = test system: K-562 leukemia
[21] = test system: KM12 colon
[22] = test system: LOX IMVI melanoma
[23] = test system: M14 melanoma
[24] = test system: MALME-3M melanoma
[25] = test system: MCF7 breast
[26] = test system: MDA-MB-231 breast
[27] = test system: MDA-MB-435
[28] = test system: MOLT-4 leukemia
[29] = test system: NCI-H226 lung

## CC(C)(C)c1nn(-c2ccccc2)c2c1C(=O)CSC(c1ccccc1Cl)N2 (configuration not stated)
[1]
  GI50: 3.32 µM
  TGI: 15.1 µM
[2]
  GI50: 0.353 µM
  TGI: 3.78 µM
[3]
  GI50: 1.67 µM
  TGI: 14 µM
[4]
  GI50: 4.87 µM
  TGI: 19.3 µM
[5]
  GI50: 2.91 µM
  TGI: 12.9 µM
[6]
  GI50: 1.24 µM
  TGI: 22.2 µM
[7]
  GI50: 2.48 µM
  TGI: 13.5 µM
[8]
  GI50: 2.51 µM
  TGI: 6.01 µM
[9]
  GI50: 2.86 µM
  TGI: 10.7 µM
[10]
  GI50: 3.71 µM
  TGI: 26.1 µM
[11]
  GI50: 2.08 µM
  TGI: 7.51 µM
[12]
  GI50: 1.9 µM
  TGI: 12 µM
[13]
  GI50: 2 µM
  TGI: 16 µM
[14]
  GI50: 2.28 µM
  TGI: 10.2 µM
[15]
  GI50: 4.47 µM
  TGI: 21.8 µM
[16]
  GI50: 0.82 µM
  TGI: 14.4 µM
[17]
  GI50: 1.26 µM
  TGI: 7.22 µM
[18]
  GI50: 1.97 µM
  TGI: 6.55 µM
[19]
  GI50: 3.52 µM
  TGI: 43 µM
[20]
  GI50: 0.583 µM
  TGI: 14.9 µM
[21]
  GI50: 1.48 µM
  TGI: 14.7 µM
[22]
  GI50: 2.74 µM
  TGI: 15.7 µM
[23]
  GI50: 1.18 µM
  TGI: 6.45 µM
[24]
  GI50: 14.7 µM
  TGI: 32.6 µM
[25]
  GI50: 1.03 µM
  TGI: 13.5 µM
[26]
  GI50: 3.57 µM
  TGI: 16 µM
[27]
  GI50: 0.304 µM
  TGI: 1.31 µM
[28]
  GI50: 3.42 µM
  TGI: 16.5 µM
[29]
  GI50: 1.61 µM

From PubChem BioAssay (NCI)
